pEC50: −log10 of the molar value.
Legend:
F508delCFTR [1] = biological target: T1, F508delCFTR (Homo sapiens, UniProt P13569, DEL508-508); experiment: Cell Surface Expression-Horse Radish Peroxidase (CSE-HRP) assay, test compound without co-corrector; assay type: cell-based; details: for pEC50: test compound without co-corrector; for Emax / Maximum % activity (without co-corrector): maximum at any tested concentration, without co-corrector; for Emax: normalized to on-plate positive control; for Maximum % activity (without co-corrector): normalized to positive control;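 on Maximum % activity (without co-corrector): percent of on-plate 2 µM positive control corrector response over DMSO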
T1 construct: expressed in transfected cells; host or cells: CFBE41o- human lung-derived epithelial cells (CFBE41o-F508delCFTR-HRP), doxycycline-inducible
Method in brief: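 Compound without co-corrector was tested at eight 3-fold concentrations, top 20 μM, for 18-24 h at 33° C on doxycycline-induced (0.5 μg/mL, 72 h) CFBE41o- F508delCFTR-HRP cells. After DPBS washes, luminol luminescence gave % activity relative to on-plate positive control minus DMSO; EC50 came from triplicate-plate sigmoidal fitting.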

F508delCFTR [2] = biological target: T1, F508delCFTR; experiment: Cell Surface Expression-Horse Radish Peroxidase (CSE-HRP) assay, test compound with co-corrector; assay type: cell-based; details: for Maximum % activity (with co-corrector): maximum at any tested concentration;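 on Maximum % activity (with co-corrector): percent of 2 µM positive control corrector over DMSO; co-corrector is that same compound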
Method in brief: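 Surface-expression read-out: luminol luminescence from an HRP tag in the fourth exofacial loop of F508delCFTR, in doxycycline-induced (0.5 μg/mL, 72 h) CFBE41o- cells. Compound plus 2 μM co-corrector added for 18-24 h at 33° C., 8-point 3-fold series up to 20 μM. EC50 from a sigmoidal fit with variable Hill slope, normalised to positive control, triplicate plates.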

[3] = CSE-HRP assay, test compound with 2 μM co-corrector
[4] = normalized to on-plate positive control, with 2 μM co-corrector
[5] = normalized to positive control, with 2 μM co-corrector

T1 sequence (P13569 with tags, fused parts or gaps DEL508-508): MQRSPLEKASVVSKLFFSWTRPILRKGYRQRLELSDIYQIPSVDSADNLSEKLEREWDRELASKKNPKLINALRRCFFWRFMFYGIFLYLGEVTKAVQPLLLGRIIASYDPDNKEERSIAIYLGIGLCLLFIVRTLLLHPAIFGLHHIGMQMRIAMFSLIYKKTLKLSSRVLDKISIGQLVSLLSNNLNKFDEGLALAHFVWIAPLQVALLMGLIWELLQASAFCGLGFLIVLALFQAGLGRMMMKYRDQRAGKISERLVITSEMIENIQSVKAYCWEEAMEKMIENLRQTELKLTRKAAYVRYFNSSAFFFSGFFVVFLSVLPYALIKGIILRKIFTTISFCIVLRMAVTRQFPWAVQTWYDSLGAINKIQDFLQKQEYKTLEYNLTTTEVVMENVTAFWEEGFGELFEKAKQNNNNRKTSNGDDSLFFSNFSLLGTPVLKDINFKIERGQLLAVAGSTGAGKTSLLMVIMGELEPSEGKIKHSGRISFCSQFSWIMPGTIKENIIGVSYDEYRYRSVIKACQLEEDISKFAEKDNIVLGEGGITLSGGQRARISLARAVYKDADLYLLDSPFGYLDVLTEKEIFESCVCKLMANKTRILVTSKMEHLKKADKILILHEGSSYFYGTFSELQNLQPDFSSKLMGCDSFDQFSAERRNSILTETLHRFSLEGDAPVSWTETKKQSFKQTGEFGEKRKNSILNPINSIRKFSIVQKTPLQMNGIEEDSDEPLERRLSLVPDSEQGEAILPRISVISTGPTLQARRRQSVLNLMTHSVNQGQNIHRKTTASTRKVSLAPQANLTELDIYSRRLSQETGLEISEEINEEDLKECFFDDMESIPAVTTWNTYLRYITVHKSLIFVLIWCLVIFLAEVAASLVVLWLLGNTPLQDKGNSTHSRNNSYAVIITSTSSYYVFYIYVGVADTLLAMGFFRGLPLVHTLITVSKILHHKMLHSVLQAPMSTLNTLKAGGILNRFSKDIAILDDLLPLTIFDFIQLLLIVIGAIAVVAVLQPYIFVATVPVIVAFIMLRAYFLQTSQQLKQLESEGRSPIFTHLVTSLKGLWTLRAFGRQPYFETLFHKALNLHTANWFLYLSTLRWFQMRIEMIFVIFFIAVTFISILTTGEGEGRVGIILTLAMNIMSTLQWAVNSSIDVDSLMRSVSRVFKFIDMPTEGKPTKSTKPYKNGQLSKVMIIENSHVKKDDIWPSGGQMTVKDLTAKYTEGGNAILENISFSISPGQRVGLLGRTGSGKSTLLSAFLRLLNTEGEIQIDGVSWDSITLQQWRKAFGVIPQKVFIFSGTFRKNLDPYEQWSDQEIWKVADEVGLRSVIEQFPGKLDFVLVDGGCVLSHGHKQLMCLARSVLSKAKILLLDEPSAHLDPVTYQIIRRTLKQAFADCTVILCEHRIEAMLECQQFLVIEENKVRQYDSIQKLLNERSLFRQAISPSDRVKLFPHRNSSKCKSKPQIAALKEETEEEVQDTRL

Compound	pEC50 (F508delCFTR [1]; CSE-HRP assay)	Emax (F508delCFTR [1]) [%]	pEC50 (F508delCFTR [2]; [3])	Maximum % activity (with co-corrector) (F508delCFTR [2]; [4])	Maximum % activity (without co-corrector) (F508delCFTR [1])	pEC50 (F508delCFTR [1])	Maximum % activity (with co-corrector) (F508delCFTR [2]; [5])	pEC50 (F508delCFTR [2]; with 2 μM co-corrector)
COc1ccc(C2=CCOCC2)c2c1C(C(=O)NS(=O)(=O)c1cccc3ncccc13)CC2 (stereo not shown) [III-169]	5.00 to 5.52	≥ 150	> 5.52	+++ (≥350)				
COc1ccc(-c2ccc(C)cc2)c2c1C(C(=O)NS(=O)(=O)c1cccc3ccccc13)CCC2 (stereo not shown) [III-170]	> 5.52	50 to 150	> 5.52	+++ (≥350)				
COc1ccc(-c2ccc(C(F)(F)F)nc2)c2c1C(C(=O)NS(=O)(=O)c1cccc3ccccc13)CCC2 (stereo not shown) [III-171]	5.00 to 5.52	50 to 150	5.00 to 5.52	+++ (≥350)				
CCC1(C(=O)NS(=O)(=O)c2cccc(N3CCOCC3)c2C)CCc2c(Cl)cccc21 (stereo not shown) [III-172]	5.00 to 5.52	< 50	> 5.52	++ (≥150 and <350)				
CCC1(C(=O)NS(=O)(=O)c2cccc(N(C)CCOC)c2C)CCc2c(Cl)cccc21 (stereo not shown) [III-173]	5.00 to 5.52	50 to 150	5.00 to 5.52	+++ (≥350)				
COc1ccc(N2CCCC2)c2c1CCCC2C(=O)NS(=O)(=O)c1cccc2ccccc12 (stereo not shown) [III-174]	≤ 5.00	< 50	≤ 5.00	+ (<150)				
COc1ccc2c(c1OC)CC2C(=O)NS(=O)(=O)c1ccccc1C (stereo not shown) [III-175]	≤ 5.00	< 50	≤ 5.00	+ (<150)				
Cc1ccccc1S(=O)(=O)NC(=O)C1Cc2ccccc21 (stereo not shown) [III-176]	≤ 5.00	< 50	≤ 5.00	+ (<150)				
COc1ccc2c(c1OC)CC2C(=O)NS(=O)(=O)c1cccc2ccccc12 (stereo not shown) [III-177]	≤ 5.00	< 50	5.00 to 5.52	++ (≥150 and <350)				
COc1ccc2c(n1)CCC2C(=O)NS(=O)(=O)c1cccc2ccccc12 (stereo not shown) [III-178]	5.00 to 5.52	< 50	5.00 to 5.52	++ (≥150 and <350)				
CCC1(C(=O)NS(=O)(=O)c2cccc(Cl)c2C(=O)O)CCc2c(Cl)cccc21 (stereo not shown) [III-179]	≤ 5.00	< 50	≤ 5.00	+ (<150)				
COc1ccc(Br)c2c1C(C(=O)NS(=O)(=O)c1cccc3c(C(=O)O)cccc13)CC2 (stereo not shown) [III-181]	≤ 5.00	< 50	5.00 to 5.52	++ (≥150 and <350)				
COc1cccc2c1C(C(=O)NS(=O)(=O)c1cccc3ccccc13)CC2 (stereo not shown) [III-182]	> 5.52	50 to 150	> 5.52	++ (≥150 and <350)				
COc1ccc(C(=O)O)c2c1C(C(=O)NS(=O)(=O)c1cccc3ccccc13)CC2 (stereo not shown) [III-183]	≤ 5.00	< 50	5.00 to 5.52	++ (≥150 and <350)				
COC(=O)c1ccc(OC)c2c1CCC2C(=O)NS(=O)(=O)c1cccc2ccccc12 (stereo not shown) [III-184]		50 to 150		++ (≥150 and <350)				
COc1ccc(CO)c2c1C(C(=O)NS(=O)(=O)c1cccc3ccccc13)CC2 (stereo not shown) [III-185]	5.00 to 5.52	< 50	5.00 to 5.52	++ (≥150 and <350)				
CNC(=O)c1ccc(OC)c2c1CCC2C(=O)NS(=O)(=O)c1cccc2ccccc12 (stereo not shown) [III-186]	≤ 5.00	< 50	≤ 5.00	+ (<150)				
COc1ccc(C(=O)N(C)C)c2c1C(C(=O)NS(=O)(=O)c1cccc3ccccc13)CC2 (stereo not shown) [III-187]	≤ 5.00	< 50	≤ 5.00	+ (<150)				
COc1ccc(CN2CCCC2)c2c1C(C(=O)NS(=O)(=O)c1cccc3ccccc13)CC2 (stereo not shown) [III-188]	≤ 5.00	< 50	5.00 to 5.52	+ (<150)				
(1R)-4-cyclobutyl-7-methoxy-N-(1,2,3,4-tetrahydroquinoline-8-sulfonyl)-2,3-dihydro-1H-indene-1-carboxamide [Example I-131]					+++ (≥150)	> 5.52	+++ (≥350)	> 5.52
(1S)-7-chloro-1-methyl-N-(naphthalene-1-sulfonyl)-2,3-dihydro-1H-indene-1-carboxamide [Example I-26]					++ (≥50 and <150)	> 5.52	+++ (≥350)	> 5.52

From US20180244611A1, “Modulators of the Cystic Fibrosis Transmembrane Conductance Regulator Protein and Methods of Use” (AbbVie S.à.r.l., priority 2017, published 2018)
